# Laboratory results taken from US7524968B2, “2-pyridinylcycloalkylbenzamide derivatives and their use as fungicides” (Bayer Cropscience S.A., priority 2004, dated 2009).
# How the values were obtained:
# Details in all cases: 330 ppm; result in words
# Botrytis cinerea = assay: Effectiveness on Botrytis cinerea (comparison compounds of WO 01/11965); type: in vivo
# Alternaria brassicae = assay: In vivo test on Alternaria brassicae (leaf spot of crucifers) on radish plants
# Method: The active ingredient tested is prepared by potter homogenization in a concentrated suspension type formulation at 100 g/l. This suspension is then diluted with water to obtain the desired active material concentration.
# Radish plants (Pernot variety) in starter cups, sown on a 50/50 peat soil-pozzolana substrate and grown at 18-20° C., are treated at the cotyledon stage by spraying with the aqueous suspension described above.
# Plants, used as controls, are treated with an aqueous solution not containing the active material.
# After 24 hours, the plants are contaminated by spraying them with an aqueous suspension of Alternaria brassicae spores (40,000 spores per cm^3). The spores are collected from a 12-13-day-old culture.
# The contaminated radish plants are incubated for 6-7 days at about 18° C., under a humid atmosphere.
# Grading is carried out 6 to 7 days after the contamination, in comparison with the control plants.
# Peronospora parasitica = assay: Efficacy against Peronospora parasitica (comparison compound of WO 01/11965); type: in vivo
smiles,measurement,setting,value
"CNC(=O)C(Cc1ncc(C(F)(F)F)cc1Cl)NC(=O)c1ccc(OC)cc1 (stereo not drawn) [compound 315, N-{1-methylcarbamoyl-2-[3-chloro-5-(trifluoromethyl)-2-pyridinyl]ethyl}-4-methoxybenzamide]",effectiveness on Botrytis cinerea,Botrytis cinerea,zero effectiveness
"CCNC(=O)C(Cc1ncc(C(F)(F)F)cc1Cl)NC(=O)c1ccccc1 (stereo not drawn) [compound 304, N-{1-ethylcarbamoyl-2-[3-chloro-5-(trifluoromethyl)-2-pyridinyl]-ethyl}-benzamide]",effectiveness on Botrytis cinerea,Botrytis cinerea,zero effectiveness
"CCNC(=O)C(Cc1ncc(C(F)(F)F)cc1Cl)NC(=O)c1ccc(Cl)cc1 (stereo not drawn) [compound 306, N-{1-ethylcarbamoyl-2-[3-chloro-5-(trifluoromethyl)-2-pyridinyl]ethyl}-4-chlorobenzamide]",effectiveness on Botrytis cinerea,Botrytis cinerea,zero effectiveness
"CCNC(=O)C(Cc1ncc(C(F)(F)F)cc1Cl)NC(=O)c1cccc([N+](=O)[O-])c1 (stereo not drawn) [compound 307, N-{1-ethylcarbamoyl-2-[3-chloro-5-(trifluoromethyl)-2-pyridinyl]ethyl}-3-nitrobenzamide]",effectiveness on Alternaria brassicae,Alternaria brassicae,poor effectiveness
same,effectiveness on Botrytis cinerea,Botrytis cinerea,zero effectiveness
"O=C(Cc1cccs1)NCc1ncc(C(F)(F)F)cc1Cl [compound 101, N-{[3-chloro-5-(trifluoromethyl)-2-pyridinyl]methyl}-5-thienylacetamide]",effectiveness on Alternaria brassicae,Alternaria brassicae,poor efficacy
same,effectiveness on Botrytis cinerea,Botrytis cinerea,no efficacy
same,efficacy against Peronospora parasitica,Peronospora parasitica,no efficacy
"CNC(=O)C(Cc1ncc(C(F)(F)F)cc1Cl)NC(=O)c1ccc(-c2ccccc2)cc1 (stereo not drawn) [compound 316, N-{1-methylcarbamoyl-2-[3-chloro-5-(trifluoromethyl)-2-pyridinyl]-ethyl}-4-phenylbenzamide]",effectiveness on Alternaria brassicae,Alternaria brassicae,poor effectiveness
same,effectiveness on Botrytis cinerea,Botrytis cinerea,zero effectiveness
"CCNC(=O)C(Cc1ncc(C(F)(F)F)cc1Cl)NC(=O)c1ccccc1Br (stereo not drawn) [compound 310, N-{1-ethylcarbamoyl-2-[3-chloro-5-(trifluoromethyl)-2-pyridinyl]ethyl}-2-bromobenzamide]",effectiveness on Botrytis cinerea,Botrytis cinerea,zero effectiveness
"CNC(=O)C(Cc1ncc(C(F)(F)F)cc1Cl)NC(=O)c1ccccc1 (stereo not drawn) [compound 314, N-{1-methylcarbamoyl-2-[3-chloro-5-(trifluoromethyl)-2-pyridinyl]ethyl}-benzamide]",effectiveness on Botrytis cinerea,Botrytis cinerea,zero effectiveness
